# BindingDB's records for doi:10.1074/jbc.M114.558353 (Harvard School of Public Health, 2014)
# Legend:
# [1] = target: Dihydroorotate dehydrogenase (quinone), mitochondrial (Homo sapiens, UniProt Q02127); assay: DHODH Biochemical Assay
# [2] = target: T1, Dihydroorotate dehydrogenase (quinone), mitochondrial (Plasmodium falciparum (isolate 3D7), UniProt Q08210); assay: DHODH Biochemical Assay
# T1 sequence (Q08210 whole entry): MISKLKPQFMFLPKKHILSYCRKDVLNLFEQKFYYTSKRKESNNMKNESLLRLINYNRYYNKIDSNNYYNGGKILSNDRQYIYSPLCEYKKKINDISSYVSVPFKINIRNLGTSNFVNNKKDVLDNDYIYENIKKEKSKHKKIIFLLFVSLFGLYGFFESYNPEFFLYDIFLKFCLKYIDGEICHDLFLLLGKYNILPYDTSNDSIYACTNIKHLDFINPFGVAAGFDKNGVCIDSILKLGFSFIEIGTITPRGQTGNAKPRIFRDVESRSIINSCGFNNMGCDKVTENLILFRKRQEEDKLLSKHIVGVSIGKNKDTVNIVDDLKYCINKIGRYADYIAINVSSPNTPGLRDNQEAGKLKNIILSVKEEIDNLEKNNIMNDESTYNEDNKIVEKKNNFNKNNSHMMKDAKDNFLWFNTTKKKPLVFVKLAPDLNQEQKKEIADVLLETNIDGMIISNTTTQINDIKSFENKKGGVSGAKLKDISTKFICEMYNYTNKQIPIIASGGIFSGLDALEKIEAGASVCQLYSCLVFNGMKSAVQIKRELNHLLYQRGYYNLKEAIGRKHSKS
# Dihydroorotate dehydrogenase (quinone), mitochondrial (Homo sapiens, UniProt Q02127), sequence (Q02127 whole entry): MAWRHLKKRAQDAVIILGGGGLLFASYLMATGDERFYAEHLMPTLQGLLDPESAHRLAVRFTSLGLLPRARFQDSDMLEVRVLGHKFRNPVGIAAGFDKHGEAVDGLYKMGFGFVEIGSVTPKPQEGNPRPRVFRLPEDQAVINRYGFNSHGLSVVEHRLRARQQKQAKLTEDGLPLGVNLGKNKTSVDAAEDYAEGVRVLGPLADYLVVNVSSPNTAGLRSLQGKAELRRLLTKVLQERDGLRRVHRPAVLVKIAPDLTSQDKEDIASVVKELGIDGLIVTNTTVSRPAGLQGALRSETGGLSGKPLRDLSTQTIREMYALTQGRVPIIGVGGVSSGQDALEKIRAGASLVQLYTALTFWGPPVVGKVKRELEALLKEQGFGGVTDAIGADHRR
IC50 [1],IC50 [2],Structure (SMILES)
3.8 µM,3.5 µM,Cc1nnc2c3ccccc3c(N3CCc4ccccc4C3)nn12 [IDI-6253]
> 30 µM,0.08 µM,Cc1nc2c(C#N)cccc2n1-c1ccc(C(=O)NC2CC2)s1
> 30 µM,13.5 µM,CCOc1cccc(=O)c2c(C)n(Cc3ccc(Cl)cc3)c(C)c12 [IDI-6273]
> 30 µM,1.7 µM,CCSc1nnc(C2CCCN(CC(=O)Nc3cc(C(F)(F)F)ccc3Cl)C2)n1CC (stereo not drawn) [GSK3]
